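All cell lines were grown in 96-well plates and treated with compound for 48 hours. TGI: concentration producing complete growth inhibition.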
Columns and labels:
Experiment in all cases: NCI tumour cell line growth inhibition, 48 h
KM12 colon = test system: KM12 colon
NCI-H460 lung = test system: NCI-H460 lung
A498 renal = test system: A498 renal
COLO 205 colon = test system: COLO 205 colon
PC-3 prostate = test system: PC-3 prostate
SK-MEL-28 melanoma = test system: SK-MEL-28 melanoma
HT29 colon = test system: HT29 colon
SF-295 CNS = test system: SF-295 CNS
SK-MEL-2 melanoma = test system: SK-MEL-2 melanoma
BT-549 breast = test system: BT-549 breast
SK-MEL-5 melanoma = test system: SK-MEL-5 melanoma
CAKI-1 renal = test system: CAKI-1 renal
HOP-92 NSCLC = test system: HOP-92 NSCLC
MDA-N = test system: MDA-N
DU-145 prostate = test system: DU-145 prostate
OVCAR-4 ovarian = test system: OVCAR-4 ovarian
K-562 leukemia = test system: K-562 leukemia
A549 NSCLC = test system: A549 NSCLC
SK-OV-3 ovarian = test system: SK-OV-3 ovarian
HCC-2998 colon = test system: HCC-2998 colon

Structure (SMILES)	TGI (KM12 colon) [µM]	TGI (NCI-H460 lung) [µM]	TGI (A498 renal) [µM]	TGI (COLO 205 colon) [µM]	TGI (PC-3 prostate) [µM]	TGI (SK-MEL-28 melanoma) [µM]	TGI (HT29 colon) [µM]	TGI (SF-295 CNS) [µM]	TGI (SK-MEL-2 melanoma) [µM]	TGI (BT-549 breast) [µM]	TGI (SK-MEL-5 melanoma) [µM]	TGI (CAKI-1 renal) [µM]	TGI (HOP-92 NSCLC) [µM]	TGI (MDA-N) [µM]	TGI (DU-145 prostate) [µM]	TGI (OVCAR-4 ovarian) [µM]	TGI (K-562 leukemia) [µM]	TGI (A549 NSCLC) [µM]	TGI (SK-OV-3 ovarian) [µM]	TGI (HCC-2998 colon) [µM]
COc1cc(Br)cc2nc(-c3cccs3)oc12	> 100	> 100	> 100	> 100	> 100	> 100	> 100	> 100	> 100	> 100	> 100	> 100	> 100	> 100	> 100	> 100	> 100	> 100	> 100	> 100
C/C=C/C(C#N)(Cc1ccccc1)OP1(=O)OC(c2ccccc2)C(C)N1C (centres undefined)	> 100	> 100	> 100	> 100	> 100	> 100	> 100	> 100	> 100	> 100	> 100	> 100	> 100	> 100	> 100	–	> 100	> 100	> 100	> 100
COc1ccc2c(c1)CC[C@@H]1[C@@H]2CC[C@]2(C)C(=O)/C(=C/c3ccncc3)C[C@@H]12	73.9	> 100	87.6	> 100	> 100	90.6	> 100	66.6	60.1	> 100	41.6	> 100	77.9	> 100	> 100	> 100	> 100	> 100	> 100	75.4
CN1C(=O)c2c(c3c4ccccc4n(C4OC(CO)C(O)C(O)C4O)c3c3[nH]c4ccccc4c23)C1=O (centres undefined)	11.3	12.1	3.26	6.79	9.62	8.43	9.52	10.9	4.72	33.8	3.29	5.3	5.86	7.24	9.66	6.36	> 100	29.6	10.9	7.72
Nc1ccc2cc3[nH]c4cc(N)ccc4c3nc2c1	1.7	0.548	1.24	1.27	1.49	0.317	1.48	1.37	1.47	3.15	0.923	0.636	0.737	1.13	2.4	3.02	> 22.6	3.38	2.03	0.976
CC#Cc1cc2c(cc1O)CC[C@@H]1[C@@H]2CC[C@]2(C)[C@@H](O)CC[C@@H]12	14.1	20.2	27.9	33.4	39	23.7	30.5	2.73	15.1	24.5	13.8	> 69.6	26.9	0.547	46.9	62	> 100	> 37.8	> 62.2	19.2

— PubChem BioAssay (NCI)
